# In patent publication US20070078263A1, “BIARYL SUBSTITUTED HETEROCYCLE INHIBITORS OF LTA4H FOR TREATING INFLAMMATION” (deCODE Chemistry, Inc., priority 2005, published 2007):
# Counter-ions that a name gives are not always drawn. Like-named read-outs stand apart in the source and are kept apart here.
# What was measured:
# human LTA4 hydrolase = target: T1, human LTA4 hydrolase (Homo sapiens, UniProt P09960); experiment: In vitro assay testing inhibitory activity against purified recombinant human LTA4 hydrolase (LTB4 formed, LC-MS/MS); type: biochemical;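 also: 200 nM enzyme preincubated 10 min at room temperature with serial inhibitor dilutions in pH 8.0 Tris buffer with BSA and 10% DMSO, then 2 µM LTA4 added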
# T1 construct: A human LTA4 hydrolase full-length cDNA clone (NM 000895) was purchased; His tag (6xHis of vector pDEST17); made in house; host or cells: Escherichia coli BL21-AI
# T1 sequence (P09960 1-611): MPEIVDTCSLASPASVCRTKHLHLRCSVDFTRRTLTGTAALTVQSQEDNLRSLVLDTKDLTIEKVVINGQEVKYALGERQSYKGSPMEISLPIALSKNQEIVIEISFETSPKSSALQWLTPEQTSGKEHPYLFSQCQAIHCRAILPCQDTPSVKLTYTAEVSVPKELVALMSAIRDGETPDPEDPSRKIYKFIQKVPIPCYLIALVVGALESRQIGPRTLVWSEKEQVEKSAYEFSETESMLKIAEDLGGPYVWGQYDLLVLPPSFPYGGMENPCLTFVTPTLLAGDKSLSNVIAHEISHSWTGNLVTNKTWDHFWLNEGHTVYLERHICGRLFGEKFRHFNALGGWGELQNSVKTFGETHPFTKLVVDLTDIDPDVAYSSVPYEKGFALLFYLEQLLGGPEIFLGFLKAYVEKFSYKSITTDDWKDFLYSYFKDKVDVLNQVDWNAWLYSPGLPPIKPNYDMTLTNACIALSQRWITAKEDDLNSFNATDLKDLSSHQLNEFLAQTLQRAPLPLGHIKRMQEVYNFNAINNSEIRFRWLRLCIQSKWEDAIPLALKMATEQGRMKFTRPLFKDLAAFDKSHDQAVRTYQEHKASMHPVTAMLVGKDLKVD
# Description: (1) In vitro assay testing inhibitory activity against purified recombinant human LTA4 hydroase. […] The gene was amplified by polymerase chain reaction and transferred via pDONR201 into the bacterial expression vector pDEST17 by recombination (both plasmids from Invitrogen, Carlsbad, Calif.). The resulting construct was transformed into Escherichia coli BL21-AI (Invitrogen), and expression was induced by chemical induction with arabinose. The recombinant enzyme was purified by chromatography on an FPLC system (Amersham Biosciences, Uppsala, Sweden) using immobilized metal affinity chromatography (Ni-NTA Superflow, Qiagen, Hilden, Germany) and anion exchange chromatography (MonoQ HR 10/10, Amersham Biosciences).
# The compounds of the invention were incubated in a series of dilutions with 200 nM of recombinant enzyme in assay buffer (100 mM Tris-HCl, 100 mM NaCl, 5 mg/ml fatty-acid free BSA, 10% DMSO, pH 8.0) for 10 min at room temperature to allow binding between LTA4 hydrolase and the inhibitors. LTA4 was prepared by alkaline hydrolysis of LTA4 methyl ester (Biomol, Plymouth Meeting, Pa., or Cayman Chemicals, Ann Arbor, Mich.). A solution of 10 μg of the ester was dried under a nitrogen stream and redissolved in 60 μl of a solution of 80% acetone and 20% 0.25 M NaOH. After incubation for 40 min at room temperature the resulting approximately 500 μM tock of LTA4 was kept at −80° C. for no more than a few days prior to use.
# Immediately before the assay, LTA4 was diluted to a concentration of 10 μM in assay buffer (without DMSO) and added to the reaction mixture to a final concentration of 2 μM to initiate the enzyme reaction. […] The samples were then kept at 4° C. overnight to complete protein precipitation and centrifuged for 15 min at 1800 g.
# human whole blood = experiment: Ex vivo assay testing inhibitory activity in human whole blood after stimulation with calcium ionophore (LTB4 ELISA); type: cell-based; conditions: Ionomycin 20 μM, read-out: hWBIC50;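 also: heparinized human blood preincubated 15 min at 37 °C with compound, then ionomycin-stimulated for 30 min, LTB4 in plasma supernatant quantified by ELISA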
# Protocol: (2) Ex vivo assay testing inhibitory activity in human whole blood after stimulation with calcium ionophor.
# Human blood was collected in heparin-containing Vacutainer tubes. […] Then 4 μl of a series of compound dilutions (in DMSO) were added, followed by a 15 min incubation at 37° C. with gentle shaking. After that, blood samples were stimulated by adding Ionomycin (Calbiochem) to a final concentration of 20 μM. After another incubation at 37° C. for 30 min, samples were centrifuged for 5 min at 1800 g and 4° C. Supernatants were taken and LTB4 concentrations were determined using a commercially available enzyme-linked immunosobentassay (R&D Systems, Minneapolis, Minn.) according to the manufacturer's instructions.
# [1] = recombinant human LTA4 hydrolase 200 nM, LTA4 2 μM, read-out: AvgIC50
Compound,IC50 (human LTA4 hydrolase; [1]),IC50 (human whole blood),IC50 (human LTA4 hydrolase)
"c1ccc(Oc2ccc(OCC3CCCCN3)cc2)cc1 (racemic) [Example 74, (+/−)-2-[(4-phenoxyphenoxy)methyl]-piperidine hydrochloride]",< 5 µM,< 5 µM,–
"O=C(O)CCCN1CCC[C@H]1COc1ccc(Cc2ccccc2)cc1 [Example 3, 4-[(S)-2-(4-benzyl-phenoxymethyl)-pyrrolidin-1-yl]-butyric acid]",< 5 µM,< 5 µM,–
"c1ccc(Cc2ccc(OC[C@H]3CCCN3Cc3ccccn3)cc2)cc1 [Example 4, 2-[(R)-2-(4-benzyl-phenoxymethyl)-pyrrolidin-1-ylmethyl]-pyridine]",< 5 µM,< 5 µM,–
"COC(=O)CCCN1CCC[C@@H]1COc1ccc(Cc2ccccc2)cc1 [Example 8, 4-[(R)-2-(4-benzyl-phenoxymethyl)-pyrrolidin-1-yl]-butyric acid methyl ester]",< 5 µM,< 5 µM,–
"Clc1ccc(Oc2ccc(OC[C@H]3CCCN3)cc2)cc1 [Example 13, (R)-2-[4-(4-Chloro-phenoxy)-phenoxymethyl]-pyrrolidine hydrochloride]",< 5 µM,< 5 µM,–
"FC(F)(F)c1ccc(Oc2ccc(OC[C@H]3CCCN3)cc2)cc1 [Example 16, (R)-2-[4-(4-Trifluoromethyl-phenoxy)-phenoxymethyl]-pyrrolidine hydrochloride]",< 5 µM,< 5 µM,–
"O=C(O)CCCN1CCC[C@@H]1COc1ccc(Oc2ccc(Cl)cc2)cc1 [Example 20, 4-{(R)-2-[4-(4-Chloro-phenoxy)-phenoxymethyl]-pyrrolidin-1-yl}-butyric acid hydrochloride]",–,< 5 µM,–
"O=C(O)CCCN1CCC[C@H]1COc1ccc(Cc2ccc(Cl)cc2)cc1 [Example 21, 4-{(S)-2-[4-(4-Chloro-benzyl)-phenoxymethyl]-pyrrolidin-1-yl}-butyric acid hydrochloride]",< 5 µM,< 5 µM,–
"O=C(O)CCCN1CCC[C@H]1COc1ccc(Oc2ccc(Cl)cc2)cc1 [Example 22, 4-{(S)-2-[4-(4-Chloro-phenoxy)-phenoxymethyl]-pyrrolidin-1-yl}-butyric acid hydrochloride]",–,< 5 µM,–
"NC(=O)CCCN1CCC[C@H]1COc1ccc(Oc2ccc(Cl)cc2)cc1 [Example 23, 4-{(S)-2-[4-(4-Chloro-phenoxy)-phenoxymethyl]-pyrrolidin-1-yl}-butyramide]",< 5 µM,< 5 µM,–
"O=C(CCCN1CCC[C@H]1COc1ccc(Oc2ccc(Cl)cc2)cc1)NO [Example 27, hydrochloride]",–,< 5 µM,–
"O=C(O)CCCN1CCC[C@@H]1COc1ccc(Oc2ccc(C(F)(F)F)cc2)cc1 [Example 30, (R)-2-[4-(4-trifluoromethyl-phenoxy)-phenoxymethyl]-pyrrolidine-1-yl}butyric acid sodium salt]",< 5 µM,< 5 µM,–
"CS(=O)(=O)NCCCN1CCC[C@H]1COc1ccc(Oc2ccc(Cl)cc2)cc1 [Example 39, N-(3-{(S)-2-[4-(4-Chloro-phenoxy)-phenoxymethyl]-pyrrolidin-1-yl}-propyl)-methanesulfonamide HCl]",< 5 µM,< 5 µM,–
"c1ccc(Oc2ccc(OC[C@H]3CCCCN3)cc2)cc1 [Example 50, (R)-2-(4-Phenoxy-phenoxymethyl)-piperidine hydrochloride]",< 5 µM,< 5 µM,–
"c1ccc(-c2ccc(Oc3ccc(OC[C@@H]4CCCCN4)cc3)cc2)cc1 [Example 53, (S)-2-[4-(Biphenyl-4-yloxy)-phenoxymethyl]-piperidine hydrochloride]",–,< 5 µM,< 5 µM
"c1coc(-c2ccc(Cc3ccc(OC[C@H]4CCCN4)cc3)cc2)n1 [Example 152, 2-{4-[4-((R)-1-Pyrrolidin-2-ylmethoxy)-benzyl]-phenyl}-oxazole]",< 5 µM,–,–
"c1ncn(-c2ccc(Oc3ccc(OC[C@H]4CCCN4)cc3)cc2)n1 [Example 153, 1-{4-[4-((R)-1-Pyrrolidin-2-ylmethoxy)-phenoxy]-phenyl}-1H-[1,2,4]triazole hydrochloride salt]",< 5 µM,–,–
"c1ccc(Cc2ccc(COC[C@H]3CCCN3)cc2)cc1 [Example 156, hydrochloride salt]",–,–,< 5 µM
"O=C(O)CCCN1CCC[C@@H]1COCc1ccc(Cc2ccccc2)cc1 [Example 157, 4-[(R)-2-(4-Benzyl-benzyloxymethyl)pyrrolidin-1-yl]butylic acid hydrochloride salt]",< 5 µM,–,–
"O=C(O)CCCN1CCC[C@H]1COc1ccc(Cc2ccc(-c3ccccc3)s2)cc1 [Example 162, 4-{(S)-2-[4-(5-Phenyl-thiophen-2-ylmethyl)-phenoxymethyl]-pyrrolidin-1-yl}-butyric acid]",< 5 µM,–,–
"c1ccc(-c2ccc(Cc3ccc(OC[C@H]4CCCN4)cc3)o2)cc1 [Example 163, (R)-2-[4-(5-Phenyl-furan-2-ylmethyl)-phenoxymethyl]-pyrrolidine]",< 5 µM,–,–
"O=C(O)CCCN1CCC[C@@H]1COc1ccc(-c2ccc(Cc3ccccc3)s2)cc1 [Example 171, 4-{(R)-2-[4-(5-Benzyl-thiophen-2-yl)-phenoxymethyl]-pyrrolidin-1-yl}-butyric acid]",< 5 µM,–,–
Cc1ccc(Oc2ccc(OC[C@@H]3CCCN3)cc2)cc1 [compound 37],< 5 µM,–,–
(S)-2-[4-(2-thiophen-benzyl)-phenoxymethyl]-pyrrolidine hydrogen chloride salt [Example 117],–,< 5 µM,–

# Second part, led by results:
IC50 (human LTA4 hydrolase; [1]),IC50 (human whole blood),Compound,IC50 (human LTA4 hydrolase)
< 5 µM,< 5 µM,"c1ccc(Cc2ccc(OCC3CCCCN3)cc2)cc1 (racemic) [Example 73, (+/−)-2-[(4-Benzylphenoxy)methyl]-piperidine hydrochloride]",–
< 5 µM,< 5 µM,"c1ccc(Cc2ccc(OC[C@H]3CCCN3Cc3cccnc3)cc2)cc1 [Example 5, 3-[(R)-2-(4-benzyl-phenoxymethyl)-pyrrolidin-1-ylmethyl]-pyridine]",–
< 5 µM,< 5 µM,"O=C(O)CCN1CCC[C@@H]1COc1ccc(Cc2ccccc2)cc1 [Example 9, 3-[(R)-2-(4-benzyl-phenoxymethyl)-pyrrolidin-1-yl]-propionic acid hydrochloride]",–
< 5 µM,< 5 µM,"O=C(O)CCCN1CCC[C@@H]1COc1ccc(Cc2ccccc2)cc1 [Example 10, 4-[(R)-2-(4-benzyl-phenoxymethyl)-pyrrolidin-1-yl]-butylic acid hydrochloride]",–
–,< 5 µM,"NC(=O)NCCCN1CCC[C@H]1COc1ccc(Oc2ccc(Cl)cc2)cc1 [Example 40, (3-{(S)-2-[4-(4-Chloro-phenoxy)-phenoxymethyl]-pyrrolidin-1-yl}-propyl)-urea]",–
< 5 µM,< 5 µM,"c1ccc(Oc2ccc(NC[C@H]3CCCN3)cc2)cc1 [Example 42, (4-Phenoxy-phenyl)-(R)-1-pyrrolidin-2-ylmethyl-amine]",–
< 5 µM,< 5 µM,"Fc1ccc(Oc2ccc(OC[C@H]3CCCN3)cc2)cc1 [Example 49, (R)-2-[4-(4-Fluoro-phenoxy)-phenoxymethyl]-pyrrolidine]",–
< 5 µM,< 5 µM,"c1ccc(Cc2ccc(OC[C@H]3CCCCN3)cc2)cc1 [Example 51, (R)-2-(4-Benzyl-phenoxymethyl)-piperidine hydrochloride]",–
< 5 µM,< 5 µM,"c1ccc(Oc2ccc(OC[C@@H]3CCCCN3)cc2)cc1 [Example 52, (S)-2-(4-Phenoxy-phenoxymethyl)-piperidine hydrochloride]",–
–,< 5 µM,"O=C(O)CCCN1CCC[C@@H]1COc1ccc(Oc2ccc(-c3nccs3)cc2)cc1 [Example 147, 4-{(R)-2-[4-(4-Thiazol-2-yl-phenoxy)-phenoxymethyl]-pyrrolidin-1-yl}-butyric acid]",–
< 5 µM,–,"O=C(O)CCCN1CCC[C@H]1COc1ccc(Cc2ccc(-c3nccs3)cc2)cc1 [Example 151, 4-{(S)-2-[4-(4-Thiazol-2-yl-benzyl)-phenoxymethyl]-pyrrolidin-1-yl}-butylic acid hydrochloride salt]",–
< 5 µM,–,"O=C(O)CCCN1CCC[C@@H]1COc1ccc(Cc2ccc(-c3ccccc3)s2)cc1 [Example 160, 4-{(R)-2-[4-(5-Phenyl-thiophen-2-ylmethyl)-phenoxymethyl]-pyrrolidin-1-yl}-butyric acid]",–
< 5 µM,–,"c1ccc(-c2ccc(Cc3ccc(OC[C@@H]4CCCN4)cc3)s2)cc1 [Example 161, (S)-2-[4-(5-Phenyl-thiophen-2-ylmethyl)-phenoxymethyl]-pyrrolidine hydrochloride salt]",–
< 5 µM,–,"O=C(O)CCN1CCC[C@@H]1COc1ccc(Oc2ccccn2)cc1 [Example 168, 3-{2-[4-(Pyridin-2-yloxy)-phenoxymethyl]-pyrrolidin-1-yl}-propionic acid]",–
< 5 µM,–,"c1ccc(Cc2ccc(-c3ccc(OC[C@H]4CCCN4)cc3)s2)cc1 [Example 170, (R)-2-[4-(5-Benzyl-thiophen-2-yl)-phenoxymethyl]-pyrrolidine]",–
< 5 µM,–,"c1ccc(Cc2ccc(-c3ccc(OC[C@@H]4CCCN4)cc3)s2)cc1 [Example 172, (S)-2-[4-(5-Benzyl-thiophen-2-yl)-phenoxymethyl]-pyrrolidine]",–
